Data taken from paper PMC6312923 (Life Science Alliance, 2018).

B1: Cdt2^PIP-3A: Cdt2 with I709, Y712, and F713 all mutated to alanine (protein, UniProt Q9NZJ0 1-730, looked up, variant I709A Y712A F713A)
Denticleless protein homolog: MLFNSVLRQPQLGVLRNGWSSQYPLQSLLTGYQCSGNDEHTSYGETGVPVPPFGCTFSSAPNMEHVLAVANEEGFVRLYNTESQSFRKKCFKEWMAHWNAVFDLAWVPGELKLVTAAGDQTAKFWDVKAGELIGTCKGHQCSLKSVAFSKFEKAVFCTGGRDGNIMVWDTRCNKKDGFYRQVNQISGAHNTSDKQTPSKPKKKQNSKGLAPSVDFQQSVTVVLFQDENTLVSAGAVDGIIKVWDLRKNYTAYRQEPIASKSFLYPGSSTRKLGYSSLILDSTGSTLFANCTDDNIYMFNMTGLKTSPVAIFNGHQNSTFYVKSSLSPDDQFLVSGSSDEAAYIWKVSTPWQPPTVLLGHSQEVTSVCWCPSDFTKIATCSDDNTLKIWRLNRGLEEKPGGDKLSTVGWASQKKKESRPGLVTVTSSQSTPAKAPRAKCNPSNSSPSSAACAPSCAGDLPLPSNTPTFSIKTSPAKARSPINRRGSVSSVSPKPPSSFKMSIRNWVTRTPSSSPPITPPASETKIMSPRKALIPVSQKSSQAEACSESRNRVKRRLDSSCLESVKQKCVKSCNCVTELDGQVENLHLDLCCLAGNQEDLSKDSLGPTKSSKIEGAGTSISEPPSPISPYASESCGTLPLPLRPCGEGSEMVGKENSSPENKNWLLAMAAKRKAENPSPRSPSSQTPNSRRQSGKKLPSPVTITPSSMRKACTAAHRKSQEDFCGPEHSTEL
modifications: FLAG tag
notes: Cdt2 with I709, Y712, and F713 all mutated to alanine

Key:
[1] = test system: MCF7 cells, DNA-damage (CPD) sites; test: Recruitment of GFP-Cdt2 constructs to DNA-damage sites in MCF7 cells; type: cell-based, human; settings: MCF7, UV-C 50 J/m^2, GFP fusions; two independent experiments
Source text: Figure 2. The C-terminus of Cdt2 mediates Cdt2 recruitment to sites of damage. (A) A schematic drawing of the domain structure of Cdt2 and constructs used. (B) The C-terminal, but not the N-terminal, part of Cdt2 mediates recruitment to DNA damage sites. MCF7 cells transfected with the indicated plasmids were locally UV-C irradiated (50 J/m^2 through 5 μm pore diameter micropore filters), and recruitment of each Cdt2 construct to sites of damage was examined by staining with α-CPD antibody and GFP signal.
For Western blotting, whole-cell lysates were prepared by lysing cell pellets directly in SDS–PAGE buffer. For immunofluorescence, U2OS or HEK293 cells were fixed in 4% paraformaldehyde (PFA; WAKO) for 10 min, permeabilized in 0.25% (vol/vol) Triton X-100 in PBS, and stained with the indicated antibodies as described previously. […] For cyclobutane pyrimidine dimer (CPDs) staining, MCF7 and HeLa cells were fixed in 4% PFA for 10 min, permeabilized in 0.3% Triton X-100 in PBS, and then incubated in 0.5 N NaOH for 5 min for DNA denaturation before immunofluorescence. Alexa488-conjugated anti-mouse and […] anti-rabbit antibodies were used as secondary antibodies with Hoechst 33258 to visualize DNA. […] Protein levels were analysed by ImageJ software.
We used a method to induce DNA photoproducts within localized areas of the cell nucleus as described in Ishii et al (2010). To perform micropore UV irradiation, cells were cultured on cover slips, washed twice with PBS, and subsequently covered with an isopore polycarbonate membrane filter (Millipore) with a pore size of either 3 or 5 μm in diameter, and irradiated. UV irradiation was achieved using a UV lamp (SUV-16, As One, Japan) with a dose rate of 0.4 J/m^2·s, which was monitored with a UV radiometer (UVX Radiometer, UVP) at 254 nm, or with a UV box equipped with a UV-C lamp monitored with a VLX-3W radiometer (Vilber Lourmat) at 254 nm (CX-254 sensor). The filter was removed and cells were either fixed or cultured for the indicated time before fixation, and processed for immunofluorescence. […]

Cdt2 poly-ubiquitination = test: Poly-ubiquitination of Cdt2 itself on chromatin in HEK293 cells; type: cell-based, human; settings: HEK293, MG132 3 h
Description: Figure 6. The Cdt2 PIP box is important for its recruitment to DNA damage sites and replication foci and for poly-ubiquitination activity. (A) HEK293 and stable Cdt2^WT or Cdt2^PIP-3A cells were locally UV irradiated, and stained for XPA and FLAG (Cdt2). XPA-positive spots were examined for FLAG signal, and its frequency was counted (%). More than 50 spots were examined. bar:10 μm. […] Bar: 10 μm. […] (D) Whole-cell extracts were prepared from HEK293 and stably transfected cells of Cdt2^WT or Cdt2^PIP-3A cells, separated into soluble (Sup) and chromatin-containing insoluble (Ppt) fractions, and were examined for indicated proteins. The asterisk indicates nonspecific bands. (E) HEK293 and stably transfected cells of Cdt2^WT or Cdt2^PIP-3A were treated with MG132 for 3 h. Whole-cell extracts (WCE) were prepared, separated into soluble (Sup) and insoluble (Ppt) fractions, and blotted with the indicated antibodies.
To consider this possibility, asynchronously growing control HEK293 cells and cells expressing Cdt2^WT or Cdt2^PIP-3A were treated with proteasome inhibitor MG132 and the levels of poly-ubiquitinated Cdt1 were examined. […] Cdt2^PIP-3A-expressing cells however had reduced level of both poly-ubiquitinated Cdt1 and p21 on chromatin.

| Molecule | recruitment to DNA-damage sites [1] | poly-ubiquitination of Cdt2 on chromatin (Cdt2 poly-ubiquitination) |
| --- | --- | --- |
| Cdt2: Cdt2 tagged with GFP, transiently expressed in MCF7 cells | robustly detected at DNA-damage sites |  |
| B1 |  | severely reduced |
